Like-named read-outs stand apart in the source and are kept apart here.
What was measured:
Type in all cases: cell-based
[1] = system: drug-resistant Escherichia coli I (a strain resistant to carbapenem antibiotics); test: Chessboard microbroth dilution MIC/FIC, compound A in combination with meropenem; conditions: for MIC: Escherichia coli, read-out: Compound A MIC alone; for Compound A MIC in combination: with meropenem
From the text: (§1) This experiment is designed to determine the minimum inhibitory concentration (MIC) of compound A in combination with meropenem against drug-resistant Escherichia coli I (a strain resistant to carbapenem antibiotics) and drug-resistant Escherichia coli II (a strain resistant to fluoroquinolone antibiotics, non-fluoroquinolone antibiotics, aminoglycoside antibiotics, glycopeptide antibiotics and carbapenem antibiotics), and to calculate the fractional inhibitory concentration (FIC) index.
3 strains of drug-resistant Escherichia coli I, namely drug-resistant Escherichia coli 18-W09-093, drug-resistant Escherichia coli 18-W37-025, and drug-resistant Escherichia coli 18-W37-032, are provided by Shanghai Junji Medical Laboratory Co., Ltd. These 3 strains are all resistant to carbapenem antibiotics (e.g., meropenem).
(§2) According to the recommendation of the Clinical and Laboratory Standards Institute (CLSI), the microbroth dilution method designed by the chessboard method was used to determine the minimum inhibitory concentration (MIC) of compound A in combination with meropenem against the above strains, and the fractional inhibitory concentration (FIC) index was calculated.
(§3) Compound A was dissolved in dimethyl sulfoxide to obtain a stock solution I with a concentration of 1280 mg/L. The stock solution I was diluted to 512 mg/L with sterile water to obtain a gradient dilution first tube solution I. The gradient dilution first tube solution I was subjected to 1:1 gradient dilution with sterile water to obtain a working solution I with a gradient range of 512 to 0.25 mg/L.
(§4) Meropenem was dissolved in sterile water to obtain a stock solution II with a concentration of 5120 mg/L. The stock solution II was diluted to 1024 mg/L with sterile water to obtain a gradient dilution first tube solution II. The gradient dilution first tube solution II was subjected to 1:1 gradient dilution with sterile water to obtain a working solution II with a gradient range of 1024 to 0.5 mg/L.
(§5) According to the method in Example 1, a drug sensitive plate was prepared with working solution I and working solution II, and the specific process will not be repeated here.
(§6) (2) The culture medium of the bacterial solution: Cation-Adjusted Mueller-Hinton Broth (CAMHB), a product of BBL, USA, batch number 9015952.
(§7) (3) Formulation method of bacterial solution: According to the direct colony suspension method, the test bacteria cultured overnight were prepared into a 0.5 McFarland turbidity tube using physiological saline. Then, the resulting solution was dilute 100 times with the above culture medium. 100 μL of the resulting bacterial solution was mixed well with the solution (100 μL) in each well of the drug sensitivity plate, and the final inoculation amount was 10^5 CFU/mL.
(§8) (4) Culture conditions: Culturing at 35±2° C. for 20 hours in air.
(§9) (1) The experimental results were determined according to the standard of CLSI 2019 M100 29th edition.
(§10) wherein: FIC≤0.5 indicates synergistic effect; 0.5<FIC≤1.0 indicates additive effect; 1<FIC≤2.0 indicates irrelevant effect; and FIC>2 indicates antagonistic effect.

[2] = system: drug-resistant Escherichia coli II (drug-resistant Escherichia coli 1864); test: as above
From the text: as §1
(§11) 1 strain of drug-resistant Escherichia coli II, namely drug-resistant Escherichia coli 1864, is provided by the School of Pharmacy of Fudan University. This strain is resistant to fluoroquinolone antibiotics (such as levofloxacin), non-fluoroquinolone antibiotics (such as nalidixic acid, nemofloxacin), aminoglycoside antibiotics (such as gentamicin), glycopeptide antibiotics (such as vancomycin) and carbapenem antibiotics (such as meropenem).
as §2, §3, §4, §5, §6, §7, §8, §9, §10

[3] = system: carbapenem-resistant Acinetobacter baumannii; test: as above; conditions: for MIC: Acinetobacter baumannii, read-out: Compound A MIC alone; for Compound A MIC in combination: with meropenem
From the text: This experiment is designed to determine the minimum inhibitory concentration (MIC) of compound A in combination with meropenem against carbapenem-resistant Acinetobacter baumannii and to calculate the fractional inhibitory concentration (FIC) index.
Test bacteria: 10 strains of carbapenem-resistant Acinetobacter baumannii are clinically isolated strains, and are provided by Shanghai Junji Medical Laboratory Co., Ltd.
as §2
Compound A was dissolved in dimethyl sulfoxide to obtain a stock solution I with a concentration of 51200 mg/L. The stock solution I was subjected to 1:1 gradient dilution with dimethyl sulfoxide to obtain a dilution solution with a concentration range of 51200 to 25 mg/L. The corresponding concentrations were added to sterile water for 100-fold dilution to obtain working solution I with a concentration range of 512 to 0.25 mg/L.
Meropenem was dissolved in sterile water to obtain a stock solution with a concentration of 5120 mg/L. The […] stock solution was subjected to 1:1 gradient dilution with sterile water to obtain a working solution II with a concentration range of 512 to 0.25 mg/L.
as §5, §6, §7, §8
(1) The experimental results were determined according to the standard of CLSI 2020 M100 30th edition.
as §10

[4] = system: drug-resistant Escherichia coli 1864; test: MIC of antibiotics against drug-resistant Escherichia coli II (resistance profile of the strain)
From the text: as §11

[5] = strain 18-W09-093, compound A + meropenem
[6] = strain 18-W37-025, compound A + meropenem
[7] = strain 18-W37-032, compound A + meropenem
[8] = strain 1864, compound A + meropenem
[9] = strain No. 1, compound A + meropenem
[10] = strain No. 2, compound A + meropenem
[11] = strain No. 3, compound A + meropenem
[12] = strain No. 4, compound A + meropenem
[13] = strain No. 5, compound A + meropenem
[14] = strain No. 6, compound A + meropenem
[15] = strain No. 7, compound A + meropenem
[16] = strain No. 8, compound A + meropenem
[17] = strain No. 9, compound A + meropenem
[18] = strain No. 10, compound A + meropenem
[19] = drug-resistant Escherichia coli 1864, read-out: MIC

Work on `O=[N+]([O-])c1cc(Cl)c2cccnc2c1O` [Compound A, 5-chloro-7-nitro-8-hydroxyquinoline] yielded an MIC ([1]; strain 18-W09-093) of 32 µg/mL, an MIC ([1]; strain 18-W37-025) of 32 µg/mL and an MIC ([1]; strain 18-W37-032) of 32 µg/mL. For the same compound, the “effect of the combination (summary of Table 4)” value ([1]; compound A + meropenem, drug-resistant Escherichia coli I) was “synergistic effect (FIC≤0.5 indicates synergistic effect)”, the “change of the MIC of meropenem by the combination” value ([1]; compound A + meropenem, drug-resistant Escherichia coli I and II) was “significantly reduce” and the FIC index [1, 5] was 0.258. For the same compound, the Results [1, 5] was “Synergistic”, the “Compound A MIC in combination” value ([1]; strain 18-W09-093) was 8 mg/L and the FIC index [1, 6] was 0.258. For the same compound, the Results [1, 6] was “Synergistic”, the “Compound A MIC in combination” value ([1]; strain 18-W37-025) was 8 mg/L and the FIC index [1, 7] was 0.281. The Results [1, 7] was “Synergistic”, the “Compound A MIC in combination” value ([1]; strain 18-W37-032) was 8 mg/L and the MIC ([2]; Escherichia coli, strain 1864, read-out: Compound A MIC alone) was 4 µg/mL. The “effect of the combination (summary of Table 4)” value ([2]; compound A + meropenem, drug-resistant Escherichia coli II) was “synergistic effect (FIC≤0.5 indicates synergistic effect)”, the FIC index [2, 8] was 0.14 and the Results [2, 8] was “Synergistic”. The “Compound A MIC in combination” value ([2]; strain 1864, with meropenem) was 0.5 mg/L, the MIC ([3]; strain No. 1) was 32 µg/mL and the MIC ([3]; strain No. 2) was 16 µg/mL. For the same compound, the MIC ([3]; strain No. 3) was 16 µg/mL, the MIC ([3]; strain No. 4) was 16 µg/mL and the MIC ([3]; strain No. 5) was 16 µg/mL. For the same compound, the MIC ([3]; strain No. 6) was 16 µg/mL, the MIC ([3]; strain No. 7) was 16 µg/mL and the MIC ([3]; strain No. 8) was 8 µg/mL. For the same compound, the MIC ([3]; strain No. 9) was 8 µg/mL, the MIC ([3]; strain No. 10) was 16 µg/mL and the “change of the MIC of meropenem by the combination” value ([3]; compound A + meropenem) was “significantly reduce”. For the same compound, the “effect of the combination (summary of Table 5)” value ([3]; compound A + meropenem) was “synergistic effect (FIC≤0.5 indicates synergistic effect)”, the FIC index [3, 9] was 0.127 and the Results [3, 9] was “Synergistic”. The “Compound A MIC in combination” value ([3]; strain No. 1) was 0.06 mg/L, the FIC index [3, 10] was 0.129 and the Results [3, 10] was “Synergistic”. For the same compound, the “Compound A MIC in combination” value ([3]; strain No. 2) was 0.06 mg/L, the FIC index [3, 11] was 0.129 and the Results [3, 11] was “Synergistic”. For the same compound, the “Compound A MIC in combination” value ([3]; strain No. 3) was 0.06 mg/L, the FIC index [3, 12] was 0.129 and the Results [3, 12] was “Synergistic”. For the same compound, the “Compound A MIC in combination” value ([3]; strain No. 4) was 0.06 mg/L, the FIC index [3, 13] was 0.129 and the Results [3, 13] was “Synergistic”. For the same compound, the “Compound A MIC in combination” value ([3]; strain No. 5) was 0.06 mg/L, the FIC index [3, 14] was 0.129 and the Results [3, 14] was “Synergistic”. The “Compound A MIC in combination” value ([3]; strain No. 6) was 0.06 mg/L, the FIC index [3, 15] was 0.254 and the Results [3, 15] was “Synergistic”. The “Compound A MIC in combination” value ([3]; strain No. 7) was 0.06 mg/L, the FIC index [3, 16] was 0.133 and the Results [3, 16] was “Synergistic”. The “Compound A MIC in combination” value ([3]; strain No. 8) was 0.06 mg/L, the FIC index [3, 17] was 0.133 and the Results [3, 17] was “Synergistic”. The “Compound A MIC in combination” value ([3]; strain No. 9) was 0.06 mg/L, the FIC index [3, 18] was 0.129 and the Results [3, 18] was “Synergistic”. For the same compound, the “Compound A MIC in combination” value ([3]; strain No. 10) was 0.06 mg/L.
`C[C@H]1COc2c(N3CCN(C)CC3)c(F)cc3c(=O)c(C(=O)O)cn1c23` [Levofloxacin] was tested, and the MIC [4, 19] was 32 µg/mL.
`CCn1cc(C(=O)O)c(=O)c2ccc(C)nc21` [Nalidixic acid] gave an MIC ([4]; Escherichia coli) greater than 64 µg/mL.
`COc1c(N2C[C@@H](C)C[C@H](N)C2)ccc2c(=O)c(C(=O)O)cn(C3CC3)c12` [Nemofloxacin] showed an MIC [4, 19] greater than 64 µg/mL.
In the case of `CN[C@H](CC(C)C)C(=O)N[C@H]1C(=O)N[C@@H](CC(N)=O)C(=O)N[C@H]2C(=O)N[C@H]3C(=O)N[C@H](C(=O)N[C@H](C(=O)O)c4cc(O)cc(O)c4-c4cc3ccc4O)[C@H](O)c3ccc(c(Cl)c3)Oc3cc2cc(c3O[C@@H]2O[C@H](CO)[C@@H](O)[C@H](O)[C@H]2O[C@H]2C[C@](C)(N)[C@H](O)[C@H](C)O2)Oc2ccc(cc2Cl)[C@H]1O` [Vancomycin], the MIC ([4]; Escherichia coli) is reported as greater than 64 µg/mL.
With Gentamycin the MIC ([4]; drug-resistant Escherichia coli 1864) was 64 µg/mL.

From patent US20260240832A1, “USE OF NITROXOLINE COMPOUND IN ENHANCING EFFECT OF ANTIBACTERIAL AGENT” (Jiangsu Yahong Meditech Co., Ltd., priority 2022, published 2026)
